For data set [1], the system named is Liver microsome. In words: Ratio of Vmax to Km for drug metabolism in human liver microsomes assessed as formation of scutellarein-6,7-diglucuronide after 7 mins by HPLC/UV analysis. The data set is classed as ADME. (Liver microsomes are a subcellular fraction often used to study metabolism.)
Data set [2] concerns the target ATP-binding cassette sub-family C member 2 (Homo sapiens, UniProt Q92887). In words: Inhibition of human MRP2-mediated estradiol-17beta-D-glucuronide formation using inside-out membrane vesicles by LC-MS/MS analysis.
The test system of data set [3] is Liver microsome. In words: Ratio of Vmax to Km for drug metabolism in rat liver microsomes assessed as formation of scutellarein-6,7-diglucuronide after 7 mins by HPLC/UV analysis. In kind it is ADME.
For data set [4], the target named is T1, UDP-glucuronosyltransferase 1A10 (Homo sapiens, UniProt Q9HAW8).
T1 sequence (Q9HAW8 whole entry): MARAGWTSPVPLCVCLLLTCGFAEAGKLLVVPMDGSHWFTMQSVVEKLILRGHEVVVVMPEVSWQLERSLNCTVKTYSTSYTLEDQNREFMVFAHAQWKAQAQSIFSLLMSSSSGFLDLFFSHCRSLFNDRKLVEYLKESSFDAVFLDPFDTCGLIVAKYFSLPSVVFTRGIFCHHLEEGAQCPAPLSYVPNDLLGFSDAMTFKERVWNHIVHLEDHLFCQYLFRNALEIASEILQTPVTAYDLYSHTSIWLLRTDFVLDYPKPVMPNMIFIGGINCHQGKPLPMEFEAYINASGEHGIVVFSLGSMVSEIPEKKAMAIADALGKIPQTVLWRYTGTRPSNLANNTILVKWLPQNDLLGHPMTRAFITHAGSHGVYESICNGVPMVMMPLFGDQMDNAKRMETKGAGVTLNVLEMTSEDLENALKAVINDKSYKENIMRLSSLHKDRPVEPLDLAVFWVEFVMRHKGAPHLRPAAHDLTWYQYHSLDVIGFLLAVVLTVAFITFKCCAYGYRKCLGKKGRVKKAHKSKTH
In words: Drug metabolism assessed as human recombinant UGT1A10-mediated formation of scutellarein-6,7-diglucuronide after 25 mins by HPLC/UV analysis. In kind it is ADME.

The nature of data set [5]: Ratio of Vmax to Km for drug metabolism in rat intestinal microsomes assessed as formation of scutellarein-6,7-diglucuronide after 7 mins by HPLC/UV analysis. The data set is classed as ADME, Intestine, Microsome.
Data set [6] can be described thus: Drug metabolism in human intestinal microsomes assessed as formation of scutellarein-6,7-diglucuronide after 7 mins by HPLC/UV analysis. In kind it is ADME, Intestine, Microsome. The following applies: for Km / Vmax: human, microsomes, 7 min.
Data set [7] concerns the target T2, ATP-binding cassette sub-family C member 3 (Homo sapiens, UniProt O15438). In words: Drug uptake assessed as human MRP3-mediated drug transport using inside-out membrane vesicles by measuring +ATP/-ATP ratio by LC-MS/MS analysis. The data set is classed as ADME.
Another data set has as its target T3, OATP2B1 (Homo sapiens, UniProt O94956).
T3 sequence (O94956 whole entry): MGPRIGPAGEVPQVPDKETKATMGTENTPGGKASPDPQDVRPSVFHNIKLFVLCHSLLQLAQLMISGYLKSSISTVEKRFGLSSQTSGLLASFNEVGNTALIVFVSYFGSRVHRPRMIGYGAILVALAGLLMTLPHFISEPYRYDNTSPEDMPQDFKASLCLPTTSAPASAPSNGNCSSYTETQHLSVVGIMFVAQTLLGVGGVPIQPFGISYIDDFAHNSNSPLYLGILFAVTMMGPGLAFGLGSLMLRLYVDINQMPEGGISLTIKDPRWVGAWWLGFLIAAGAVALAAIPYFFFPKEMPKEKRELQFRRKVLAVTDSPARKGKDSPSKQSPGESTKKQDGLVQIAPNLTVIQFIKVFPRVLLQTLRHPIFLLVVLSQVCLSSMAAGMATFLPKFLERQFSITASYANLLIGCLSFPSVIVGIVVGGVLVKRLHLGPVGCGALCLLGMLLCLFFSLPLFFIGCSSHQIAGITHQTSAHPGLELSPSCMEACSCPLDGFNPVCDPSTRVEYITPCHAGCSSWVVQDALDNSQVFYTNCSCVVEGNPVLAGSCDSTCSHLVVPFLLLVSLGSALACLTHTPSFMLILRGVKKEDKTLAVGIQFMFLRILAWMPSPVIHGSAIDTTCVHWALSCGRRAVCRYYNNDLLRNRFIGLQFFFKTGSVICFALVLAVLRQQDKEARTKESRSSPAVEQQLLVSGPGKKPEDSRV
In words: Drug uptake assessed as OATP2B1 (unknown origin)-mediated drug transport expressed in HEK293 cells by LC-MS/MS analysis relative to control. The data set is classed as ADME, cell-based. The following applies: HEK293 cells expressing OATP2B1.

In data set [8] the target is Liver microsome. In words: Drug metabolism in human liver microsomes assessed as formation of scutellarein-6,7-diglucuronide after 7 mins by HPLC/UV analysis. The following applies: for Km / Vmax: human, microsomes, 7 min. In kind it is ADME.
Data set [9] addresses ATP-dependent translocase ABCB1 (Homo sapiens, UniProt P08183). In words: Inhibition of human MDR1-mediated N-methyl quinine formation using inside-out membrane vesicles by LC-MS/MS analysis. In kind it is ADME.
The target in data set [10] is T4, Broad substrate specificity ATP-binding cassette transporter ABCG2 (Homo sapiens, UniProt Q9UNQ0).
T4 sequence (Q9UNQ0 whole entry): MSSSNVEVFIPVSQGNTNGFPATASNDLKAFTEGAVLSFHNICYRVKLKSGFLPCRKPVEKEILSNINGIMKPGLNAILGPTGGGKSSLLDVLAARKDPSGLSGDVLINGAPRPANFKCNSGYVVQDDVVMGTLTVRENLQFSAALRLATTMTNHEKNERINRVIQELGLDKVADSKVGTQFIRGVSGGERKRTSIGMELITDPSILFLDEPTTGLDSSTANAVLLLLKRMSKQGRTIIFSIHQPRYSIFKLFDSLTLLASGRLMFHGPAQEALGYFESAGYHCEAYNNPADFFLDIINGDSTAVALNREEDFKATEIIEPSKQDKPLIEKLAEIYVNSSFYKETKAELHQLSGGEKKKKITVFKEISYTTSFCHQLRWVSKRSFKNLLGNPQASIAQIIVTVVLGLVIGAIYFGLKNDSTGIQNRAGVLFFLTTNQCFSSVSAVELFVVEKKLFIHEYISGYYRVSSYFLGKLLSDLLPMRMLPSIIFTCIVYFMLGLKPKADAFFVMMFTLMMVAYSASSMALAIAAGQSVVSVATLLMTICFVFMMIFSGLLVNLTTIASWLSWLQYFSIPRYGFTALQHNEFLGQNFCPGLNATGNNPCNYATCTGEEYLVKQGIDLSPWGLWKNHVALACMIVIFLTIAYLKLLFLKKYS
In words: Drug uptake assessed as human BCRP-mediated drug transport using inside-out membrane vesicles by measuring +ATP/-ATP ratio by LC-MS/MS analysis. The data set is classed as ADME.

The target of data set [11] is T4, Broad substrate specificity ATP-binding cassette transporter ABCG2. In words: Inhibition of human BCRP-mediated methotrexate transport using inside-out membrane vesicles by LC-MS/MS analysis. In kind it is ADME.
Data set [12] in a line: Ratio of Vmax to Km for drug metabolism in human intestinal microsomes assessed as formation of scutellarein-6,7-diglucuronide after 7 mins by HPLC/UV analysis. In kind it is ADME, Intestine, Microsome.
A short description of data set [13]: Drug metabolism in rat intestinal microsomes assessed as formation of scutellarein-6,7-diglucuronide after 7 mins by HPLC/UV analysis. In kind it is ADME, Intestine, Microsome. The following applies: for Km / Vmax: rat, microsomes, 7 min.
The target in data set [14] is T2, ATP-binding cassette sub-family C member 3. In words: Inhibition of human MRP3-mediated estradiol-17beta-D-glucuronide formation using inside-out membrane vesicles by LC-MS/MS analysis.

T2 sequence (O15438 whole entry): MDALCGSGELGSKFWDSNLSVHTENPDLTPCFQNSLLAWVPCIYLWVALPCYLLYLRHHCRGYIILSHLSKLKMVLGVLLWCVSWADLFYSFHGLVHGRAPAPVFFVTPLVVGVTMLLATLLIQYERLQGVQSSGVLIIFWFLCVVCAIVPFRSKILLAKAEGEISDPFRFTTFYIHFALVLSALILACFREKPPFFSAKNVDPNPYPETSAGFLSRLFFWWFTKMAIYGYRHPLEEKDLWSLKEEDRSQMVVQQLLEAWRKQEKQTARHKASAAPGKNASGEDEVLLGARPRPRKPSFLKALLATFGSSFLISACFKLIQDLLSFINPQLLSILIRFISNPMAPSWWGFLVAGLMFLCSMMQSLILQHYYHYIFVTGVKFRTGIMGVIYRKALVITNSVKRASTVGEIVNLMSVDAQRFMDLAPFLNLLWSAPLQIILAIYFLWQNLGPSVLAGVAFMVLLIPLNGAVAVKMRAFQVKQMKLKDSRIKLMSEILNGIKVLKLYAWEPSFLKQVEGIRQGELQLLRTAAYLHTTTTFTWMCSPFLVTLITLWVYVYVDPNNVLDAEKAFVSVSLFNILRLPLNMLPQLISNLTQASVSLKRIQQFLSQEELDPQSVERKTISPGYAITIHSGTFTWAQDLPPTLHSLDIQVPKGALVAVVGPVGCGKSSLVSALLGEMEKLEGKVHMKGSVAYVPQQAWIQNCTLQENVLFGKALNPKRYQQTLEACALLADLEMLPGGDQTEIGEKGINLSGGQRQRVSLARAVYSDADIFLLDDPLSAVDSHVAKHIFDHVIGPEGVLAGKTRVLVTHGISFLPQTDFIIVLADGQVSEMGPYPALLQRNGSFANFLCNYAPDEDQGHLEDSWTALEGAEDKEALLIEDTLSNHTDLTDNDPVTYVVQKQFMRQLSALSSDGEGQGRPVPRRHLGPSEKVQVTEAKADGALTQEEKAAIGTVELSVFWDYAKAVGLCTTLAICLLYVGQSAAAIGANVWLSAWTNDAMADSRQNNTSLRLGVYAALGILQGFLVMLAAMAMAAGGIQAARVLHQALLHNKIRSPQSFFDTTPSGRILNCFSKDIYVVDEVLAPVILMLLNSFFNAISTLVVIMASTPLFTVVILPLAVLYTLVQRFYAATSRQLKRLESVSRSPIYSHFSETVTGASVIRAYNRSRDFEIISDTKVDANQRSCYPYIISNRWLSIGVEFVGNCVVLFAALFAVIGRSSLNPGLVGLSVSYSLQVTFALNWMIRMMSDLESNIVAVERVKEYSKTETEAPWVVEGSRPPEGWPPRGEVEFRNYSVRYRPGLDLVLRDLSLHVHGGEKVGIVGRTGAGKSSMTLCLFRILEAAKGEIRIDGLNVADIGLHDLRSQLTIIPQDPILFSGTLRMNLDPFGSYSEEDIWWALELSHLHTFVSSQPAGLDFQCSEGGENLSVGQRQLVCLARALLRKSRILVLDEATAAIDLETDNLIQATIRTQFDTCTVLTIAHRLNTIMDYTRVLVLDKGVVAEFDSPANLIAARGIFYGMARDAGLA
Sequence of ATP-dependent translocase ABCB1 (P08183 whole entry): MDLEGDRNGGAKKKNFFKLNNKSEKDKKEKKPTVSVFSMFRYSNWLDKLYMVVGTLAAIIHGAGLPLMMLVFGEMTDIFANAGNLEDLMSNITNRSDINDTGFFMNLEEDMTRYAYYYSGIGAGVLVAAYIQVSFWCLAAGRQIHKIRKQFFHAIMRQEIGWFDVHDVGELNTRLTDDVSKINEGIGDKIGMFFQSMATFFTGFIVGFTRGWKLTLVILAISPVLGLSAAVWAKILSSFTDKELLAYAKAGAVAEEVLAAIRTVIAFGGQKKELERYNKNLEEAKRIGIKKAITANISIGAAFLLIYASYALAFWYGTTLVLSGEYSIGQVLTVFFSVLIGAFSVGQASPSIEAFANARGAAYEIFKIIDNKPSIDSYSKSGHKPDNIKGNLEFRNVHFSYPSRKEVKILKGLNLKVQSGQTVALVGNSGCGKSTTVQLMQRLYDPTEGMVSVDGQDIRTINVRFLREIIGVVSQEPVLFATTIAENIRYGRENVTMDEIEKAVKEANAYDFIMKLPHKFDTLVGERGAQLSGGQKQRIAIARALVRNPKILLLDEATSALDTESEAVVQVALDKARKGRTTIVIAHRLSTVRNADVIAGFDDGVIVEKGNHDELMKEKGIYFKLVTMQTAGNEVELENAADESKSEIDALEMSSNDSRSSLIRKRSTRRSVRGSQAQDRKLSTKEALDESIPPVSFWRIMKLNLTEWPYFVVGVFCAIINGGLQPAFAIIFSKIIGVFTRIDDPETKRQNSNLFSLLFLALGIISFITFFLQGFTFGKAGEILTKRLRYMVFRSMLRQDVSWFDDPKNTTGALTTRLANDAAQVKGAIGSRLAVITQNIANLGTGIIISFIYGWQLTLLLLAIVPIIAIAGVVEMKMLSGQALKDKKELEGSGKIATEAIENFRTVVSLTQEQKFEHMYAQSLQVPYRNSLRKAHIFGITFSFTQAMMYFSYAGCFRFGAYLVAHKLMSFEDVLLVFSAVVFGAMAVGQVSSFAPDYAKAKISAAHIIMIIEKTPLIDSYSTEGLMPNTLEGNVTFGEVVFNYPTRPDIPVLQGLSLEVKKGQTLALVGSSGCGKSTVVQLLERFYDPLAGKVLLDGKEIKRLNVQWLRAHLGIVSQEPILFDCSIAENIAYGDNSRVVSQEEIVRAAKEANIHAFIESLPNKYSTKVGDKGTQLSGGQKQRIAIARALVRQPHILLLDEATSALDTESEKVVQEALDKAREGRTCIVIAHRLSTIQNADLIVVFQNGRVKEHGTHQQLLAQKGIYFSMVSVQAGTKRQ
Sequence of ATP-binding cassette sub-family C member 2 (Q92887 whole entry): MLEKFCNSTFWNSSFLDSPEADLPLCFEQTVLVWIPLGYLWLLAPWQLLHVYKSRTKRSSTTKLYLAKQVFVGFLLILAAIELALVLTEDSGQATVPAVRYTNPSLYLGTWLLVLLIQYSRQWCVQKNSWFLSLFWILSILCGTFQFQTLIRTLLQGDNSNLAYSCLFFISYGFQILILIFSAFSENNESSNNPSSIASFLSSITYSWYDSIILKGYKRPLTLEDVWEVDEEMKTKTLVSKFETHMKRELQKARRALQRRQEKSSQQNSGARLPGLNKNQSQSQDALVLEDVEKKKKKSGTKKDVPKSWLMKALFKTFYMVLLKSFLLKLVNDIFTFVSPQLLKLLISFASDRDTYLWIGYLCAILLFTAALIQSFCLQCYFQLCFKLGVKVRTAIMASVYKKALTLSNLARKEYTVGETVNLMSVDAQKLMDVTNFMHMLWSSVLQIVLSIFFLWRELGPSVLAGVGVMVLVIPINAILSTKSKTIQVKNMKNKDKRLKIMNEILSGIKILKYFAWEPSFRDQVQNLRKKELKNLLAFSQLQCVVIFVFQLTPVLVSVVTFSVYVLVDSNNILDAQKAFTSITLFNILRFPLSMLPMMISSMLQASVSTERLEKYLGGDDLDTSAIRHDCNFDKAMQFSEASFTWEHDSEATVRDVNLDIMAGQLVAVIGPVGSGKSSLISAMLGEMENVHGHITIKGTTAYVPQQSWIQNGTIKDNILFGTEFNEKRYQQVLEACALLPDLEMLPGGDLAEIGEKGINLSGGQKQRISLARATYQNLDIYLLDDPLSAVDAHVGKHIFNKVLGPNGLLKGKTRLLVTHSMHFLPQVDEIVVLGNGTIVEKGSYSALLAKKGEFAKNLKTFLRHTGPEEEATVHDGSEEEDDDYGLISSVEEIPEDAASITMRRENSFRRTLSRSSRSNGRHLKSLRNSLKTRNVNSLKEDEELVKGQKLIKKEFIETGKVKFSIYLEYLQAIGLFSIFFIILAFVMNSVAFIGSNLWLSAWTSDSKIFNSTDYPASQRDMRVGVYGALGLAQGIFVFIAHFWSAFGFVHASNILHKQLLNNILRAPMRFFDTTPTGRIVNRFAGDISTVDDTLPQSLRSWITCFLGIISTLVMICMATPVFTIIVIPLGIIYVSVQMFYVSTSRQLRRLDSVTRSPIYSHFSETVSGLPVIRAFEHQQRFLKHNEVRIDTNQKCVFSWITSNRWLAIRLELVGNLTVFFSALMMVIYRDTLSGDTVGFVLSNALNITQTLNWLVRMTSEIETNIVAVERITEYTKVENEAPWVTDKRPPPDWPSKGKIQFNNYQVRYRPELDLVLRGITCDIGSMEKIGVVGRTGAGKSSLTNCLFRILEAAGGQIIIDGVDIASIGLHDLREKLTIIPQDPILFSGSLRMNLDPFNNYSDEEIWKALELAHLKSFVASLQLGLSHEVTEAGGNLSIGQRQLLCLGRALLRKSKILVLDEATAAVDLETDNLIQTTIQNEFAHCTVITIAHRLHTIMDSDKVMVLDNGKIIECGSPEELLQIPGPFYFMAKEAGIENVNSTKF

For the compound `O=C(O)[C@H]1O[C@@H](Oc2cc3oc(-c4ccc(O)cc4)cc(=O)c3c(O)c2O)[C@H](O)[C@@H](O)[C@@H]1O` [SCUTELLARIN], the Vmax/Km is 11.8 µL/min/mg in the data set with Liver microsome [1], 204 µL/min/mg in the data set on Liver microsome [3], 18.9 µL/min/mg in data set [5] and 18.5 µL/min/mg in [12]. In addition, the figures for the IC50 in data set [2] and in [11] were 75 µM and 10 µM, respectively. In addition, the Ki (commonly a measure of affinity in units of concentration, obtained from inhibition or displacement) is 208 µM in [4], 59.5 µM in [6], 133 µM on Liver microsome [8] and 79 µM in data set [13]. Also, the Km (usually the substrate concentration at which the rate is half of its maximum) in data set [6] came to 643 µM; in the data set with Liver microsome [8], 62.4 µM; in data set [13], 349 µM. Further, the Vmax (commonly the top rate of the reaction or transport when substrate is in excess) in [6] came to 11.9 nmol/min/mg; in the data set with Liver microsome [8] it was 0.736 nmol/min/mg; in data set [13] it was 6.6 nmol/min/mg. In addition, the Ratio in data set [7] worked out at 1.61; in data set [10], 57.5. The uptake ratio at OATP2B1 turned out to be 65. The “inhibition (INH)” value in data set [9] was “Active”; in data set [14], “Not Active”.

`O=C(O)[C@H]1O[C@@H](Oc2c(O)cc3oc(-c4ccc(O)cc4)cc(=O)c3c2O)[C@H](O)[C@@H](O)[C@@H]1O`: the Vmax/Km in the data set with Liver microsome [1] worked out at 127 µL/min/mg; with Liver microsome [3], 91.3 µL/min/mg; in data set [5] it was 30 µL/min/mg; in [12], 110 µL/min/mg. The IC50 (commonly the midpoint of a concentration-inhibition curve) amounted to 50 µM in data set [2] and 20 µM in [11]. Besides, the Ki in data set [4] was found to be 242 µM; in [6], 11.8 µM; at Liver microsome [8] it was 24 µM; in data set [13], 79.2 µM. In addition, the Vmax in data set [4] (human, recombinant enzyme, 25 min) is given as 0.221 nmol/min/mg; in data set [6], 17.1 nmol/min/mg; in the data set with Liver microsome [8] it was 15.6 nmol/min/mg; in data set [13] it was 1.23 nmol/min/mg. Further, the Km came out at 156 µM in data set [6], 123 µM in the data set with Liver microsome [8] and 41.1 µM in data set [13]. In addition, the Ratio is listed as 1.61 in data set [7] and 57.5 in data set [10]. In addition, the uptake ratio on OATP2B1 stood at 20.4. Besides, the “inhibition (INH)” value in [9] and in data set [14] was “Active” throughout.

For the origin of these results see ChEMBL document CHEMBL3526031, “Mechanistic studies on the absorption and disposition of scutellarin in humans: selective OATP2B1-mediated hepatic uptake is a likely key determinant for its unique pharmacokinetic characteristics” (Drug Metab Dispos, 2012).
